Test results from the supplement of paper PMC8967900.

system: KOPN-8; test: selective drug sensitivity score (sDSS, relative to normal bone marrow) (sDSS (score)); higher = more potent and effective on the cell line relative to normal bone marrow cells; details: 72 h
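Further: ALL cell lines in 384-well plates, five doses spanning 10,000-fold, each plate scaled between vehicle and 100 µmol/L benzalkonium chloride controls, sDSS an adapted area-under-curve metric.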

Compound | selective drug sensitivity score
C1=N/C2=N/c3ccc(OCCN4CCCC4)c(c3)COC/C=C/COCc3cccc(c3)C(=C1)N2 [Pacritinib] (top concentration 10000 nM) | -4.7
Cc1[nH]c2ccccc2c1CCNCc1ccc(/C=C/C(=O)NO)cc1 [Panobinostat] (top concentration 1000 nM) | 18.2
Cc1ccc(Nc2nccc(N(C)c3ccc4c(C)n(C)nc4c3)n2)cc1S(N)(=O)=O [Pazopanib] (top concentration 10000 nM) | 5.64
Nc1nc2[nH]cc(CCc3ccc(C(=O)N[C@@H](CCC(=O)O)C(=O)O)cc3)c2c(=O)[nH]1 [Pemetrexed] (top concentration 10000 nM) | 30.2
Cc1ccc(C(=O)Nc2ccc(CN3CCN(C)CC3)c(C(F)(F)F)c2)cc1C#Cc1cnc2cccnn12 [Ponatinib] (top concentration 1000 nM) | 27.1
C[C@]12C=CC(=O)C=C1CC[C@@H]1[C@@H]2[C@@H](O)C[C@@]2(C)[C@H]1CC[C@]2(O)C(=O)CO [Prednisolone] (top concentration 10000 nM) | 22.6
CC(C)(C)c1cc(NC(=O)Nc2ccc(-c3cn4c(n3)sc3cc(OCCN5CCOCC5)ccc34)cc2)no1 [Quizartinib] (top concentration 1000 nM) | 7.58
Nc1cc(F)ccc1NC(=O)/C=C/c1cnn(C/C=C/c2ccccc2)c1 [RGFP966] (top concentration 10000 nM) | 11.5
CNC(=O)c1cc(Oc2ccc(NC(=O)Nc3ccc(Cl)c(C(F)(F)F)c3)c(F)c2)ccn1 [Regorafenib] (top concentration 10000 nM) | 10.9

system: LC4-1; test: as above; details: 72 h

Compound | selective drug sensitivity score
C1=N/C2=N/c3ccc(OCCN4CCCC4)c(c3)COC/C=C/COCc3cccc(c3)C(=C1)N2 [Pacritinib] (top concentration 10000 nM) | -5.6
Cc1[nH]c2ccccc2c1CCNCc1ccc(/C=C/C(=O)NO)cc1 [Panobinostat] (top concentration 1000 nM) | 5.84
Cc1ccc(Nc2nccc(N(C)c3ccc4c(C)n(C)nc4c3)n2)cc1S(N)(=O)=O [Pazopanib] (top concentration 10000 nM) | 5.24
Nc1nc2[nH]cc(CCc3ccc(C(=O)N[C@@H](CCC(=O)O)C(=O)O)cc3)c2c(=O)[nH]1 [Pemetrexed] (top concentration 10000 nM) | 21
Cc1ccc(C(=O)Nc2ccc(CN3CCN(C)CC3)c(C(F)(F)F)c2)cc1C#Cc1cnc2cccnn12 [Ponatinib] (top concentration 1000 nM) | 0.32
C[C@]12C=CC(=O)C=C1CC[C@@H]1[C@@H]2[C@@H](O)C[C@@]2(C)[C@H]1CC[C@]2(O)C(=O)CO [Prednisolone] (top concentration 10000 nM) | 8.4
CC(C)(C)c1cc(NC(=O)Nc2ccc(-c3cn4c(n3)sc3cc(OCCN5CCOCC5)ccc34)cc2)no1 [Quizartinib] (top concentration 1000 nM) | 4.78
Nc1cc(F)ccc1NC(=O)/C=C/c1cnn(C/C=C/c2ccccc2)c1 [RGFP966] (top concentration 10000 nM) | 12.2
CNC(=O)c1cc(Oc2ccc(NC(=O)Nc3ccc(Cl)c(C(F)(F)F)c3)c(F)c2)ccn1 [Regorafenib] (top concentration 10000 nM) | 6.74

system: CCRF-CEM; test: as above; details: 72 h

Compound | selective drug sensitivity score
C1=N/C2=N/c3ccc(OCCN4CCCC4)c(c3)COC/C=C/COCc3cccc(c3)C(=C1)N2 [Pacritinib] (top concentration 10000 nM) | -6.1
Cc1[nH]c2ccccc2c1CCNCc1ccc(/C=C/C(=O)NO)cc1 [Panobinostat] (top concentration 1000 nM) | 5.34
Cc1ccc(Nc2nccc(N(C)c3ccc4c(C)n(C)nc4c3)n2)cc1S(N)(=O)=O [Pazopanib] (top concentration 10000 nM) | 0.04
Nc1nc2[nH]cc(CCc3ccc(C(=O)N[C@@H](CCC(=O)O)C(=O)O)cc3)c2c(=O)[nH]1 [Pemetrexed] (top concentration 10000 nM) | 23.6
Cc1ccc(C(=O)Nc2ccc(CN3CCN(C)CC3)c(C(F)(F)F)c2)cc1C#Cc1cnc2cccnn12 [Ponatinib] (top concentration 1000 nM) | 1.82
C[C@]12C=CC(=O)C=C1CC[C@@H]1[C@@H]2[C@@H](O)C[C@@]2(C)[C@H]1CC[C@]2(O)C(=O)CO [Prednisolone] (top concentration 10000 nM) | 6.4
CC(C)(C)c1cc(NC(=O)Nc2ccc(-c3cn4c(n3)sc3cc(OCCN5CCOCC5)ccc34)cc2)no1 [Quizartinib] (top concentration 1000 nM) | 0.98
Nc1cc(F)ccc1NC(=O)/C=C/c1cnn(C/C=C/c2ccccc2)c1 [RGFP966] (top concentration 10000 nM) | 13.9
CNC(=O)c1cc(Oc2ccc(NC(=O)Nc3ccc(Cl)c(C(F)(F)F)c3)c(F)c2)ccn1 [Regorafenib] (top concentration 10000 nM) | 3.74

system: COG-LL-319h; test: as above; details: 72 h

Compound | selective drug sensitivity score
C1=N/C2=N/c3ccc(OCCN4CCCC4)c(c3)COC/C=C/COCc3cccc(c3)C(=C1)N2 [Pacritinib] (top concentration 10000 nM) | 0
Cc1[nH]c2ccccc2c1CCNCc1ccc(/C=C/C(=O)NO)cc1 [Panobinostat] (top concentration 1000 nM) | 14.2
Cc1ccc(Nc2nccc(N(C)c3ccc4c(C)n(C)nc4c3)n2)cc1S(N)(=O)=O [Pazopanib] (top concentration 10000 nM) | 0.74
Nc1nc2[nH]cc(CCc3ccc(C(=O)N[C@@H](CCC(=O)O)C(=O)O)cc3)c2c(=O)[nH]1 [Pemetrexed] (top concentration 10000 nM) | 27.3
Cc1ccc(C(=O)Nc2ccc(CN3CCN(C)CC3)c(C(F)(F)F)c2)cc1C#Cc1cnc2cccnn12 [Ponatinib] (top concentration 1000 nM) | 10.3
C[C@]12C=CC(=O)C=C1CC[C@@H]1[C@@H]2[C@@H](O)C[C@@]2(C)[C@H]1CC[C@]2(O)C(=O)CO [Prednisolone] (top concentration 10000 nM) | 16.2
CC(C)(C)c1cc(NC(=O)Nc2ccc(-c3cn4c(n3)sc3cc(OCCN5CCOCC5)ccc34)cc2)no1 [Quizartinib] (top concentration 1000 nM) | 5.48
Nc1cc(F)ccc1NC(=O)/C=C/c1cnn(C/C=C/c2ccccc2)c1 [RGFP966] (top concentration 10000 nM) | 17.5
CNC(=O)c1cc(Oc2ccc(NC(=O)Nc3ccc(Cl)c(C(F)(F)F)c3)c(F)c2)ccn1 [Regorafenib] (top concentration 10000 nM) | 1.84

system: JURKAT; test: as above; details: 72 h

Compound | selective drug sensitivity score
C1=N/C2=N/c3ccc(OCCN4CCCC4)c(c3)COC/C=C/COCc3cccc(c3)C(=C1)N2 [Pacritinib] (top concentration 10000 nM) | -8
Cc1[nH]c2ccccc2c1CCNCc1ccc(/C=C/C(=O)NO)cc1 [Panobinostat] (top concentration 1000 nM) | 1.04
Cc1ccc(Nc2nccc(N(C)c3ccc4c(C)n(C)nc4c3)n2)cc1S(N)(=O)=O [Pazopanib] (top concentration 10000 nM) | 2.84
Nc1nc2[nH]cc(CCc3ccc(C(=O)N[C@@H](CCC(=O)O)C(=O)O)cc3)c2c(=O)[nH]1 [Pemetrexed] (top concentration 10000 nM) | 15.6
Cc1ccc(C(=O)Nc2ccc(CN3CCN(C)CC3)c(C(F)(F)F)c2)cc1C#Cc1cnc2cccnn12 [Ponatinib] (top concentration 1000 nM) | 1.42
C[C@]12C=CC(=O)C=C1CC[C@@H]1[C@@H]2[C@@H](O)C[C@@]2(C)[C@H]1CC[C@]2(O)C(=O)CO [Prednisolone] (top concentration 10000 nM) | -2.1
CC(C)(C)c1cc(NC(=O)Nc2ccc(-c3cn4c(n3)sc3cc(OCCN5CCOCC5)ccc34)cc2)no1 [Quizartinib] (top concentration 1000 nM) | -1.52
Nc1cc(F)ccc1NC(=O)/C=C/c1cnn(C/C=C/c2ccccc2)c1 [RGFP966] (top concentration 10000 nM) | 11.2
CNC(=O)c1cc(Oc2ccc(NC(=O)Nc3ccc(Cl)c(C(F)(F)F)c3)c(F)c2)ccn1 [Regorafenib] (top concentration 10000 nM) | 4.04
